Laboratory results taken from patent publication US12516341B2, “Use of flavonoid glycoside substance and glycosyltransferase gene for regulating resistance of plants to weeds” (ZHONGKENONGFU(BEIJING) BIOTECHNOLOGY CO., LTD, priority 2020, dated 2026).

Tests used:
[1] = test system: barnyardgrass; test: External application of compound to barnyardgrass seeds on agar, root length; format: in vivo; settings: external application concentration 500 mg/L in 0.8% agar; 28° C. in the dark for 3 days; compared with control
Protocol: (§1) The reasons for choosing lettuce and barnyardgrass in the external application experiment were: lettuce was a common indicator crop reported in the literature for external application of allelopathic experiments, while barnyardgrass was the main weed in paddy fields.
(§2) (1) The compound of tricin-5-O-glucopyranoside was dried to a powder with a centrifugal concentrator and weighed, and an appropriate amount of sterile water was added to give a final concentration of 10 mg/mL.
(§3) (2) 500 mL of 0.8% agar was prepared and sterilized in an autoclave.
(§4) (3) The sterilized agar was placed in an ultra-clean bench and cooled to room temperature (note: the medium was not allowed to solidify), and then 4.75 mL of medium was accurately pipetted into a sterilized 10 mL centrifuge tube. 250 μL of the 10 mg/mL compound solution was added to give a final compound concentration of 500 mg/L. The medium containing the compound was quickly poured into a 10 cm×10 cm square dish, and the square dish was shaken quickly to make the medium evenly spread in the square dish. A medium in which 250 μL of sterile water was added to 4.75 mL of the medium was used as a control.
(§5) (4) Barnyardgrass and lettuce seeds were washed several times with distilled water, respectively, and then dried on sterile filter paper. […]
(§6) (7) Phenotypic statistics: the root length of each treated material was counted after 3 days. […]

[2] = test system: lettuce; test: External application of compound to lettuce seeds on agar, root length; format: in vivo; settings: external application concentration 500 mg/L in 0.8% agar; 28° C. in the dark for 3 days; compared with control
Protocol: as §1, §2, §3, §4, §5, §6

[3] = test system: Os07g0503900 recombinant protein; test: In vitro enzyme activity of Os07g0503900 (glycosylation of tricin with UDPG, UPLC-MS detection); format: biochemical, rice; settings: glycosyl donor UDPG; 30° C. for 1 h; pH 7.0; product tricin-5-O-glucopyranoside
Protocol: (1) The enzymatic reaction system was: Tris-HCl (pH 7.0, 50 mM, containing 10 mM DTT) 38 μL, 10 mM glycosyl acceptor (the glycosyl acceptor of Os07g0503900 was tricin) 1 μL, 100 mM glycosyl donor (UDPG) 1 μL, and 10 μL of the Os07g0503900 recombinant protein obtained in step 2 (Os07g0503900 protein concentration was 3.77 μg/μL). The reaction was carried out in a water bath at 30° C. for 1 h, and then quenched with an equal volume of methanol. A sample of the protein obtained from the E. coli transformed into the pMAL-c2X empty vector according to the above-mentioned step 2 was added as a control.
(2) Enzyme activity product detection: The sample in (1) was centrifuged at 4° C., 12,000 rpm for 10 min, and 30 μL was taken for detection by UPLC-MS (Agilent 1290UPLC-6540Q-TOF). Mobile phase A phase: 0.1% formic acid aqueous solution, % represented volume percentage; B phase: acetonitrile. Elution gradient: 0-2 min: 5% B-10% B, 2-12 min: 10% B-25% B, 12-18 min: 25% B-70% B, 18-23 min: 70% B-90% B, 23-25 min: 90% B-100% B, 25-30 min: 100% B, post-run for 5 min, % all represented volume percentage. The flow rate was 0.3 mL/min, the column temperature: 40° C., and the injection volume: 5 μL. Electrospray ionization (ESI) was used for detection in positive ion mode. The carrier gas was high-purity nitrogen at a pressure of 40 psi and a temperature of 325° C.

| Compound | inhibitory effect on the growth of barnyardgrass (root length) [1] | inhibitory effect on the growth of lettuce (root length) [2] | glycosylation of tricin by Os07g0503900 in vitro (new chromatographic peak vs empty vector control) [3] |
| --- | --- | --- | --- |
| COc1cc(-c2cc(=O)c3c(O)cc(O)cc3o2)cc(OC)c1O [tricin] | not obvious | not obvious | Os07g0503900 can catalyze the glycosylation of tricin in vitro |
| COc1cc(-c2cc(=O)c3c(O[C@@H]4O[C@H](CO)[C@@H](O)[C@H](O)[C@H]4O)cc(O)cc3o2)cc(OC)c1O [tricin-5-O-glucopyranoside] | very significant ability to inhibit the growth | very significant ability to inhibit the growth |  |
